From ChEMBL document CHEMBL3813672, “Discovery of anti-cancer activity for benzo[1,2,4]triazin-7-ones: Very strong correlation to pleurotin and thioredoxin reductase inhibition” (Bioorg Med Chem, 2016)
pIC50, pKi: −log10 of the molar value.

What was measured:
[1] = Growth inhibition of human HCT116 cells assessed as cell growth at 10 uM incubated for 48 hrs by sulforhodamine B assay relative to control; format: functional; conditions: HCT-116, 48 h, read-out: Activity
[2] = Growth inhibition of human HCC2998 cells assessed as cell growth at 10 uM incubated for 48 hrs by sulforhodamine B assay relative to control; format: functional; conditions: HCC 2998, 48 h, read-out: Activity
Malme-3M = assay: Growth inhibition of human MALME-3M cells assessed as cell growth at 10 uM incubated for 48 hrs by sulforhodamine B assay relative to control; format: functional; conditions: read-out: Activity
[3] = Growth inhibition of human SNB19 cells assessed as cell growth at 10 uM incubated for 48 hrs by sulforhodamine B assay relative to control; format: functional; conditions: SNB-19, 48 h, read-out: Activity
NCI-H226 = assay: Growth inhibition of human NCI-H226 cells assessed as cell growth at 10 uM incubated for 48 hrs by sulforhodamine B assay relative to control; format: functional; conditions: NCI-H226, 48 h, read-out: Activity
[4] = Growth inhibition of human OVCAR3 cells assessed as cell growth at 10 uM incubated for 48 hrs by sulforhodamine B assay relative to control; format: functional; conditions: OVCAR-3, 48 h, read-out: Activity
MDA-MB-468 = assay: Growth inhibition of human MDA-MB-468 cells assessed as cell growth at 10 uM incubated for 48 hrs by sulforhodamine B assay relative to control; format: functional; conditions: MDA-MB-468, 48 h, read-out: Activity
[5] = Growth inhibition of human UO31 cells assessed as cell growth at 10 uM incubated for 48 hrs by sulforhodamine B assay relative to control; format: functional; conditions: UO-31, 48 h, read-out: Activity
ACHN = assay: Growth inhibition of human ACHN cells assessed as cell growth at 10 uM incubated for 48 hrs by sulforhodamine B assay relative to control; format: functional; conditions: read-out: Activity
[6] = Growth inhibition of human RXF393 cells assessed as cell growth at 10 uM incubated for 48 hrs by sulforhodamine B assay relative to control; format: functional; conditions: RXF 393, 48 h, read-out: Activity
786-0 = assay: Growth inhibition of human 786-0 cells assessed as cell growth at 10 uM incubated for 48 hrs by sulforhodamine B assay relative to control; format: functional; conditions: 786-0, 48 h, read-out: Activity
[7] = Growth inhibition of human TK10 cells assessed as cell growth at 10 uM incubated for 48 hrs by sulforhodamine B assay relative to control; format: functional; conditions: TK-10, 48 h, read-out: Activity
NCI/ADR-RES = assay: Growth inhibition of human NCI/ADR-RES cells assessed as cell growth at 10 uM incubated for 48 hrs by sulforhodamine B assay relative to control; format: functional; conditions: read-out: Activity
HT-29 = assay: Growth inhibition of human HT-29 cells assessed as cell growth at 10 uM incubated for 48 hrs by sulforhodamine B assay relative to control; format: functional; conditions: HT-29, 48 h, read-out: Activity
NCI-H522 = assay: Growth inhibition of human NCI-H522 cells assessed as cell growth at 10 uM incubated for 48 hrs by sulforhodamine B assay relative to control; format: functional; conditions: NCI-H522, 48 h, read-out: Activity
[8] = Growth inhibition of human Caki1 cells assessed as cell growth at 10 uM incubated for 48 hrs by sulforhodamine B assay relative to control; format: functional; conditions: CAKI-1, 48 h, read-out: Activity
[9] = Mixed-type inhibition of rat liver thioredoxin reductase using DTNB as substrate measured for 50 mins at 5 mins intervals in presence of NADPH by Lineweaver-Burk plot analysis
[10] = Growth inhibition of human OVCAR5 cells assessed as cell growth at 10 uM incubated for 48 hrs by sulforhodamine B assay relative to control; format: functional; conditions: OVCAR-5, 48 h, read-out: Activity
[11] = Cytotoxicity against human DU145 cells assessed as reduction in cell viability after 72 hrs by MTT assay; format: functional, cell-based; conditions: DU-145, 72 h
SN12C = assay: Growth inhibition of human SN12C cells assessed as cell growth at 10 uM incubated for 48 hrs by sulforhodamine B assay relative to control; format: functional; conditions: read-out: Activity
KM12 = assay: Growth inhibition of human KM12 cells assessed as cell growth at 10 uM incubated for 48 hrs by sulforhodamine B assay relative to control; format: functional; conditions: KM12, 48 h, read-out: Activity
SK-MEL-28 = assay: Growth inhibition of human SK-MEL-28 cells assessed as cell growth at 10 uM incubated for 48 hrs by sulforhodamine B assay relative to control; format: functional; conditions: SK-MEL-28, 48 h, read-out: Activity
[12] = Growth inhibition of human COLO205 cells assessed as cell growth at 10 uM incubated for 48 hrs by sulforhodamine B assay relative to control; format: functional; conditions: COLO 205, 48 h, read-out: Activity
MDA-MB-435 = assay: Growth inhibition of human MDA-MB-435 cells assessed as cell growth at 10 uM incubated for 48 hrs by sulforhodamine B assay relative to control; format: functional; conditions: MDA-MB-435, 48 h, read-out: Activity
A498 = assay: Growth inhibition of human A498 cells assessed as cell growth at 10 uM incubated for 48 hrs by sulforhodamine B assay relative to control; format: functional; conditions: A498, 48 h, read-out: Activity
NCI-H460 = assay: Growth inhibition of human NCI-H460 cells assessed as cell growth at 10 uM incubated for 48 hrs by sulforhodamine B assay relative to control; format: functional; conditions: NCI-H460, 48 h, read-out: Activity
[13] = Growth inhibition of human SKOV3 cells assessed as cell growth at 10 uM incubated for 48 hrs by sulforhodamine B assay relative to control; format: functional; conditions: SK-OV-3, 48 h, read-out: Activity
SK-MEL-5 = assay: Growth inhibition of human SK-MEL-5 cells assessed as cell growth at 10 uM incubated for 48 hrs by sulforhodamine B assay relative to control; format: functional; conditions: SK-MEL-5, 48 h, read-out: Activity
[14] = Quasi-reversible one electron redox potential in dichloromethane containing 0.1 M TBAP assessed as redox potential during 0/-1 redox transition at 2 mmol measured at 100 mV/s in presence of Fc/Fc by cyclic voltammetry; format: physicochemical
[15] = Growth inhibition of human MOLT4 cells assessed as cell growth at 10 uM incubated for 48 hrs by sulforhodamine B assay relative to control; format: functional; conditions: MOLT-4, 48 h, read-out: Activity
[16] = Growth inhibition of human BT549 cells incubated for 48 hrs by sulforhodamine B assay; format: functional; conditions: BT-549, 48 h
[17] = Growth inhibition of human SW620 cells incubated for 48 hrs by sulforhodamine B assay; format: functional; conditions: SW-620, 48 h
NCI-H322M = assay: Growth inhibition of human NCI-H322M cells incubated for 48 hrs by sulforhodamine B assay; format: functional
[18] = Growth inhibition of human OVCAR3 cells incubated for 48 hrs by sulforhodamine B assay; format: functional; conditions: OVCAR-3, 48 h
[19] = read-out: pLC50 (the source's name) (converted)

Structure (SMILES): O=c1ccc2nc(-c3ccccc3)nn(-c3ccccc3)c-2c1
- growth at 10 µM [1]: -90.7%
- growth at 10 µM [2]: 100%
- growth at 10 µM (Malme-3M): -92.5%
- growth at 10 µM [3]: 76%
- growth at 10 µM (NCI-H226): 66.1%
- growth at 10 µM [4]: -96.2%
- growth at 10 µM (MDA-MB-468): -61.6%
- growth at 10 µM [5]: -97.5%
- growth at 10 µM (ACHN): -96%
- growth at 10 µM [6]: -92.8%
- growth at 10 µM (786-0): 48.6%
- growth at 10 µM [7]: -95.9%
- growth at 10 µM (NCI/ADR-RES): 96.2%
- growth at 10 µM (HT-29): -53.5%
- growth at 10 µM (NCI-H522): -90.5%
- growth at 10 µM [8]: -90.9%
- pKi [9]: 5.41
- growth at 10 µM [10]: 102%
- pIC50 [11]: 6.64
- growth at 10 µM (SN12C): 40.2%
- growth at 10 µM (KM12): 63.1%
- growth at 10 µM (SK-MEL-28): 26.4%
- growth at 10 µM [12]: -76.8%
- growth at 10 µM (MDA-MB-435): 24.6%
- growth at 10 µM (A498): 84.4%
- growth at 10 µM (NCI-H460): 61.5%
- growth at 10 µM [13]: 59.1%
- growth at 10 µM (SK-MEL-5): 19.5%
- Activity [14]: -1.12 V
- growth at 10 µM [15]: -37.6%

Structure (SMILES): O=c1ccc2nc(C(F)(F)F)nn(-c3ccccc3)c-2c1
- GI50 [16]: 12.3 µM
- CC50 [16, 19]: 50.1 µM
- TGI ([16]; read-out: pTGI (converted)): 24.5 µM
- growth at 10 µM [1]: 35.2%
- growth at 10 µM [2]: 102%
- growth at 10 µM (Malme-3M): -41.7%
- GI50 [17]: 1.74 µM
- CC50 [17, 19]: 7.94 µM
- TGI ([17]; read-out: pTGI (converted)): 3.72 µM
- growth at 10 µM [3]: 93.5%
- growth at 10 µM (NCI-H226): 77.7%
- GI50 (NCI-H322M): 18.6 µM
- CC50 (NCI-H322M; [19]): 61.7 µM
- TGI (NCI-H322M; read-out: pTGI (converted)): 33.9 µM
- growth at 10 µM [4]: -26.1%
- growth at 10 µM (MDA-MB-468): -73.5%
- growth at 10 µM [5]: 24%
- growth at 10 µM (ACHN): -89%
- growth at 10 µM [6]: -20.4%
- GI50 [18]: 1.58 µM
- CC50 [18, 19]: 5.5 µM
- TGI ([18]; read-out: pTGI (converted)): 2.95 µM
- growth at 10 µM (786-0): 22.2%
- growth at 10 µM [7]: -95%
- growth at 10 µM (NCI/ADR-RES): 84%
- growth at 10 µM (HT-29): -64.3%
- growth at 10 µM (NCI-H522): -56%
- growth at 10 µM [8]: 56%
- growth at 10 µM [10]: 102%
- pIC50 [11]: 6.07
- growth at 10 µM (SN12C): 67.9%
- growth at 10 µM (KM12): 96.8%
- growth at 10 µM (SK-MEL-28): 35.7%
- growth at 10 µM [12]: -70.7%
- growth at 10 µM (MDA-MB-435): 62.3%
- growth at 10 µM (A498): 79.9%
- growth at 10 µM (NCI-H460): 97.3%
- growth at 10 µM [13]: 79.3%
- growth at 10 µM (SK-MEL-5): 32.7%
- Activity [14]: -0.86 V
- growth at 10 µM [15]: -20.5%
